Laboratory results published in patent US9156809B2, “Carboxy ester ketals, methods of manufacture, and uses thereof” (SEGETIS, INC., priority 2012, dated 2015).

What was measured:
[1] = Model ethanolic sunscreen solutions, miscibility; assay type: physicochemical; details: by itself
Experimental: Three-component mixtures of ketal, ethanol, and avobenzone are prepared by mixing the materials at various proportions at room temperature in a vial and shaking. Avobenzone by itself is immiscible in ethanol at the 5% by weight level. The ketals used are as follows: A: ketal is 2EH-LPK; Example B: ketal is 1N-LPK. Example C: ketal is 355TMH-LPK.
Three-component mixtures of ketal, ethanol, and oxybenzone are prepared by mixing the materials at various proportions at room temperature in a vial and shaking. The ketals used are as follows: A: ketal is 2EH-LPK; Example B: ketal is 1N-LPK. Example C: ketal is 355TMH-LPK. Clear mixtures are considered to be “miscible” on this test, whereas cloudy or phase separated mixtures are considered to be “immiscible.” Oxybenzone by itself is immiscible in ethanol at the 10% by weight level.

[2] = Hydrolytic stability of coalescent solvents at elevated temperature (45° C.); assay type: physicochemical; details: 1.0 g coalescent in 10 g Rhoplex SG-10M; for Initial pH: adjusted to pH 9 with ammonia, 45° C. study; for pH 1 week / pH 2 weeks: stored at 45° C.
Experimental: (§1) Latex formulations were prepared by adding 1.0 gram of each coalescent solvent to 10 grams of an acrylic latex (Rhoplex SG-10M available from Dow Chemical Company) and adjusting the pH of each sample to a pH of 9 using ammonia. A control latex formulation was prepared without adding a coalescent solvent.

[3] = Solubility of personal care or medicinal active agents in ketal; details: 50/50 mixture, room temperature
Description: Certified organic tea tree oil (Melaleuca alternifolia, plant sourced from Australia and extracted by steam distillation) can be purchased from Wyndmere Naturals.
The recommended usage rate is 0.1-1%.
The recommended usage rate is 0.01-0.05%.

[4] = Compatibility between waxes and alkyl ketal esters; assay type: physicochemical
Description: Compatibility between various waxes and the alkyl ketal esters are first determined as detailed below. Table 13 below details the fragrant formulations for different candles that contain the fragrant composition.

[5] = Miscibility of alkyl ketal ester with essential oil; assay type: physicochemical; details: room temperature
Description: The alkyl ketal ester and the essential oil are blended in a weight ratio of 1:1 at room temperature using gentle agitation. Solubility is visually determined immediately after mixing. Clear solutions are described as “miscible” and solutions that are either cloudy or show evidence of a second phase are labeled as “immiscible.”

[6] = Hydrolytic stability of coalescent solvents at room temperature (pH of latex formulation); assay type: physicochemical; details: 1.0 g coalescent in 10 g Rhoplex SG-10M; for Initial pH: adjusted to pH 9 with ammonia, room temperature; for pH 1 week / pH 2 weeks / pH 3 weeks / pH 4 weeks: stored at room temperature
Description: The pH of latex formulations containing ester-functionalized coalescent solvents was monitored over time to evaluate hydrolytic stability of the coalescent solvents. Not wishing to be bound by theory, ester hydrolysis may occur at a high alkaline pH (for example a pH greater than about 9) during storage of latex compositions. The resulting hydrolysis products lower the pH of the latex composition and could decrease the coalescing efficiency of the coalescing solvent with respect to the initial amount of the coalescing solvent.
as §1

[7] = Relative VOC content / volatility by TGA emulating ASTM D2369; details: 110° C., nitrogen purge, 15 mg
Experimental: Here, 15 milligrams (mg) of each coalescent solvent was maintained at 110° C. for one hour with a nitrogen purge in a thermogravimetric analyzer (TGA).

[8] = Beeswax, 50/50 weight ratio, heated to 80° C., cooled to room temperature
[9] = Carnauba wax, 50/50 weight ratio, heated to 120° C.
[10] = Paraffin wax, 50/50 weight ratio, heated to 80° C., cooled to room temperature
[11] = Paraffin wax, 75/25 weight ratio, heated to 80° C., cooled to room temperature
[12] = Stearic acid, 50/50 weight ratio, heated to 80° C., cooled to room temperature
[13] = with Basil (Ocimum basilicum) essential oil
[14] = with Bergamot (Citrus bergamia) essential oil
[15] = with Birch sweet (Betula lenta) essential oil
[16] = with Citronella (Cymbopogon nardus) essential oil
[17] = with Coriander seed (Coriandrum sativum) essential oil
[18] = with Geranium (Pelargonium graveolens) essential oil
[19] = with Lavender (Lavandula angustifolium) essential oil
[20] = with Myrrh (Commiphora myrrha) essential oil
[21] = with Orange (Citrus sinensis) essential oil
[22] = with Patchouli (Pogostemon patchouli) essential oil
[23] = with Pine needle (pinus sylvestris) essential oil
[24] = with Vetiver (Vetivera zizanoides) essential oil
[25] = with Ylang ylang (Canaga odorata) essential oil

Compound | Initial pH [2] | pH 1 week [2] | pH 2 weeks [2] | Miscibility with tea tree oil [3] | Compatibility with wax upon cooling [4, 8] | Compatibility with wax upon cooling [4, 9] | Compatibility with wax upon cooling [4, 10] | Compatibility with wax upon cooling [4, 11] | Compatibility with wax upon cooling [4, 12] | Miscibility of 50/50 blend by weight [5, 13] | Miscibility of 50/50 blend by weight [5, 14] | Miscibility of 50/50 blend by weight [5, 15] | Miscibility of 50/50 blend by weight [5, 16] | Miscibility of 50/50 blend by weight [5, 17] | Miscibility of 50/50 blend by weight [5, 18] | Miscibility of 50/50 blend by weight [5, 19] | Miscibility of 50/50 blend by weight [5, 20] | Miscibility of 50/50 blend by weight [5, 21] | Miscibility of 50/50 blend by weight [5, 22] | Miscibility of 50/50 blend by weight [5, 23] | further results
COc1ccc(C(=O)c2ccccc2)c(O)c1 [Oxybenzone, oxybenzone] | – | – | – | – | – | – | – | – | – | – | – | – | – | – | – | – | – | – | – | – | Miscibility in ethanol ([1]; 10% by weight level in ethanol): immiscible
CC(CCOC(=O)CCC1(C)OCC(C)O1)CC(C)(C)C (stereo not drawn) [355TMH-LPK, 3,5,5-trimethylhexyl levulinate propylene glycol ketal] | 8.92 | 8.78 | 8.64 | miscible | single homogenous wax layer | single homogenous wax layer | single homogenous wax layer | single homogenous wax layer | single homogenous wax layer | Miscible | Miscible | Miscible | Miscible | Miscible | Miscible | Miscible | Miscible | Miscible | Miscible | Miscible | Miscibility of 50/50 blend by weight [5, 24]: Miscible; Miscibility of 50/50 blend by weight [5, 25]: Miscible
COc1ccc(C(=O)CC(=O)c2ccc(C(C)(C)C)cc2)cc1 [Avobenzone, avobenzone] | – | – | – | – | – | – | – | – | – | – | – | – | – | – | – | – | – | – | – | – | Miscibility in ethanol ([1]; 5% by weight level in ethanol): immiscible
CCCCC(CC)COC(=O)CCC1(C)OCC(C)O1 (stereo not drawn) [2EH-LPK, 2-ethylhexyl levulinate propylene glycol ketal] | – | – | – | miscible | single homogenous wax layer | single homogenous wax layer | single homogenous wax layer | single homogenous wax layer | single homogenous wax layer | Miscible | Miscible | Miscible | Miscible | Miscible | Miscible | Miscible | Miscible | Miscible | Miscible | Miscible | Initial pH [6]: 8.97; pH 1 week [6]: 8.99; pH 2 weeks [6]: 8.94; pH 3 weeks [6]: 9.03; pH 4 weeks [6]: 9.00; Miscibility of 50/50 blend by weight [5, 24]: Miscible; Miscibility of 50/50 blend by weight [5, 25]: Miscible
2,2,4-trimethyl-1,3-pentanediol monoisobutyrate [TPM] | – | – | – | – | – | – | – | – | – | – | – | – | – | – | – | – | – | – | – | – | % mass remaining ([7]; 0 min): 100%; % mass remaining ([7]; 5 min): 74%; % mass remaining ([7]; 10 min): 49%; % mass remaining ([7]; 15 min): 26%; % mass remaining ([7]; 20 min): 4%; % mass remaining ([7]; 30 min): 0%; % mass remaining ([7]; 60 min): 0%
CC(C)OC(=O)CCC1(C)OCC(C)O1 (stereo not drawn) [iPrLPK, isopropyl levulinate propylene glycol ketal] | – | – | – | – | – | – | – | – | – | – | – | – | – | – | – | – | – | – | – | – | Initial pH [6]: 8.93; pH 1 week [6]: 8.79; pH 2 weeks [6]: 8.73; pH 3 weeks [6]: 8.71; pH 4 weeks [6]: 8.64
CCOC(=O)CCC1(C)OCC(C)O1 (stereo not drawn) [EtLPK, ethyl levulinate propylene glycol ketal] | 8.95 | 8.06 | 7.53 | – | – | – | – | – | – | – | – | – | – | – | – | – | – | – | – | – | Initial pH [6]: 9.00; pH 1 week [6]: 8.69; pH 2 weeks [6]: 8.53; pH 3 weeks [6]: 8.41; pH 4 weeks [6]: 8.24
CCCCCCCCCOC(=O)CCC1(C)OCC(C)O1 (stereo not drawn) [1N-LPK, 1-nonyl levulinate propylene glycol ketal] | 8.92 | 8.75 | 8.63 | miscible | single homogenous wax layer | single homogenous wax layer | single homogenous wax layer | single homogenous wax layer | single homogenous wax layer | Miscible | Miscible | Miscible | Miscible | Miscible | Miscible | Miscible | Miscible | Miscible | Miscible | Miscible | Miscibility of 50/50 blend by weight [5, 24]: Miscible; Miscibility of 50/50 blend by weight [5, 25]: Miscible
